Results published in US20160122320A1, “USEFUL COMBINATIONS OF MONOBACTAM ANTIBIOTICS WITH BETA-LACTAMASE INHIBITORS” (Basilea Pharmaceutica AG, priority 2005, published 2016).
Blank lines part the entries; values can stand above or below the compound they belong to.

Columns and labels:
Test in all cases: MIC, NCCLS broth microdilution
Format in all cases: cell-based
[1] = system: Acinetobacter sp. J2; details: Acinetobacter baumannii J2
[2] = system: Pseudomonas aeruginosa 1973E; details: for MIC of antibiotic: antibiotic alone, no inhibitor
How it was run: (§1)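 Growth inhibition read by eye after overnight incubation (30° C. or 37° C.) defines the MIC, using NCCLS M7-A5 broth microdilution with ≤1% DMSO. When combinations were tested, only the formula I compound was titrated and each partner was fixed at 4 μg/mL.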

[3] = system: Enterobacter aerogenes Zayakosky
[4] = system: Pseudomonas aeruginosa MK1184
[5] = system: Enterobacter aerogenes B1
[6] = system: Klebsiella pneumoniae CF104
[7] = system: Stenotrophomonas malthophilia 1AC736; details: Stenotrophomonas maltophilia 1AC736
[8] = system: Serratia marcescens S6
[9] = system: Acinetobacter baumannii J51
How it was run: as §1

[10] = system: Enterobacter cloacae P99
[11] = with clavulanate (clavulanic acid)

SMILES: C[C@H]1[C@H](NC(=O)/C(=N\OC(C)(C)C(=O)O)c2csc(N)n2)C(=O)N1S(=O)(=O)O [Aztreonam, aztreonam, reference compound]
MIC of antibiotic at fixed inhibitor concentration of 4 mg/L ([1]; with 102 and clavulanate): 16 µg/mL
MIC of antibiotic at fixed inhibitor concentration of 4 mg/L ([1]; with 102 and sulbactam): 4 µg/mL
MIC of antibiotic [2]: 8 µg/mL
MIC of antibiotic at fixed inhibitor concentration of 4 mg/L ([2]; with 102 and clavulanate): 8 µg/mL
MIC of antibiotic at fixed inhibitor concentration of 4 mg/L ([2]; with 102 and sulbactam): 4 µg/mL
Minimal Inhibitory Concentration of antibiotic at fixed inhibitor concentration of 4 mg/L ([3]; Enterobacter aerogenes Zayakosky, + compound 323 and sulbactam, 4 mg/L each): 8 mg/L
MIC of antibiotic at fixed inhibitor concentration of 4 mg/L ([4]; with 102 and sulbactam): 16 µg/mL
Minimal Inhibitory Concentration of antibiotic at fixed inhibitor concentration of 4 mg/L ([5]; + compound 206 4 mg/L): 8 mg/L
Minimal Inhibitory Concentration of antibiotic at fixed inhibitor concentration of 4 mg/L ([5]; + compound 323 and sulbactam, 4 mg/L each): 8 mg/L
MIC of antibiotic at fixed inhibitor concentration of 4 mg/L ([6]; with 102 and clavulanate): 0.5 µg/mL
MIC of antibiotic at fixed inhibitor concentration of 4 mg/L ([6]; with 102 and sulbactam): 1 µg/mL
MIC of antibiotic at fixed inhibitor concentration of 4 mg/L ([7]; with 102 and clavulanate): 4 µg/mL
MIC of antibiotic at fixed inhibitor concentration of 4 mg/L ([7]; with 102 and sulbactam): 8 µg/mL
MIC of antibiotic at fixed inhibitor concentration of 4 mg/L ([8]; with 102 and clavulanate): 2 µg/mL
MIC of antibiotic at fixed inhibitor concentration of 4 mg/L ([8]; with 102 and sulbactam): 2 µg/mL

MIC of antibiotic ([1]; antibiotic alone, no inhibitor): 4 µg/mL
MIC of antibiotic at fixed inhibitor concentration of 4 mg/L ([1]; with 102 and clavulanate): 4 µg/mL
MIC of antibiotic at fixed inhibitor concentration of 4 mg/L ([1]; with 102 and sulbactam): 2 µg/mL
MIC of antibiotic at fixed inhibitor concentration of 4 mg/L ([1]; with 102 only): 4 µg/mL
MIC of antibiotic at fixed inhibitor concentration of 4 mg/L ([1]; with 324 and clavulanate): 4 µg/mL
MIC of antibiotic at fixed inhibitor concentration of 4 mg/L ([1]; with 324 and sulbactam): 2 µg/mL
MIC of antibiotic at fixed inhibitor concentration of 4 mg/L ([1]; with 324 only): 4 µg/mL
MIC of antibiotic at fixed inhibitor concentration of 4 mg/L ([1]; with 501): 0.5 µg/mL
MIC of antibiotic at fixed inhibitor concentration of 4 mg/L ([1]; with BRL427158): 0.5 µg/mL
MIC of antibiotic at fixed inhibitor concentration of 4 mg/L [1, 11]: >32 µg/mL
MIC of antibiotic at fixed inhibitor concentration of 4 mg/L ([1]; with sulbactam): 2 µg/mL
MIC of antibiotic at fixed inhibitor concentration of 4 mg/L ([1]; with tazobactam): 4 µg/mL
MIC of antibiotic ([9]; antibiotic alone, no inhibitor): 4 µg/mL
MIC of antibiotic at fixed inhibitor concentration of 4 mg/L ([9]; with 102 and clavulanate): 4 µg/mL
MIC of antibiotic at fixed inhibitor concentration of 4 mg/L ([9]; with 102 only): 2 µg/mL
MIC of antibiotic at fixed inhibitor concentration of 4 mg/L ([9]; with 324 and clavulanate): 2 µg/mL
MIC of antibiotic at fixed inhibitor concentration of 4 mg/L ([9]; with 324 only): 2 µg/mL
MIC of antibiotic at fixed inhibitor concentration of 4 mg/L ([9]; with 501): 1 µg/mL
MIC of antibiotic at fixed inhibitor concentration of 4 mg/L ([9]; with BRL427158): 32 µg/mL
MIC of antibiotic at fixed inhibitor concentration of 4 mg/L ([9]; with clavulanic acid): 1 µg/mL
MIC of antibiotic at fixed inhibitor concentration of 4 mg/L ([9]; with sulbactam): 2 µg/mL
MIC of antibiotic at fixed inhibitor concentration of 4 mg/L ([9]; with tazobactam): 4 µg/mL
MIC of antibiotic [2]: 16 µg/mL
MIC of antibiotic at fixed inhibitor concentration of 4 mg/L ([2]; with 102 and clavulanate): 2 µg/mL
MIC of antibiotic at fixed inhibitor concentration of 4 mg/L ([2]; with 102 and sulbactam): 4 µg/mL
MIC of antibiotic at fixed inhibitor concentration of 4 mg/L ([2]; with 102 only): 2 µg/mL
MIC of antibiotic at fixed inhibitor concentration of 4 mg/L ([2]; with 324 and clavulanate): 2 µg/mL
MIC of antibiotic at fixed inhibitor concentration of 4 mg/L ([2]; with 324 and sulbactam): 2 µg/mL
MIC of antibiotic at fixed inhibitor concentration of 4 mg/L ([2]; with 324 only): 4 µg/mL
MIC of antibiotic at fixed inhibitor concentration of 4 mg/L ([2]; with 501): 2 µg/mL
MIC of antibiotic at fixed inhibitor concentration of 4 mg/L ([2]; with BRL427158): 2 µg/mL
MIC of antibiotic at fixed inhibitor concentration of 4 mg/L [2, 11]: 2 µg/mL
MIC of antibiotic at fixed inhibitor concentration of 4 mg/L ([2]; with sulbactam): 2 µg/mL
MIC of antibiotic at fixed inhibitor concentration of 4 mg/L ([2]; with tazobactam): 2 µg/mL
MIC of antibiotic ([3]; Enterobacter aerogenes Zayakosky 5, antibiotic alone, no inhibitor): 16 µg/mL
MIC of antibiotic at fixed inhibitor concentration of 4 mg/L ([3]; Enterobacter aerogenes Zayakosky 5, with 102 and clavulanate): 4 µg/mL
MIC of antibiotic at fixed inhibitor concentration of 4 mg/L ([3]; Enterobacter aerogenes Zayakosky 5, with 102 only): 8 µg/mL
MIC of antibiotic at fixed inhibitor concentration of 4 mg/L ([3]; Enterobacter aerogenes Zayakosky 5, with 324 and clavulanate): 4 µg/mL
MIC of antibiotic at fixed inhibitor concentration of 4 mg/L ([3]; Enterobacter aerogenes Zayakosky 5, with 324 only): 4 µg/mL
MIC of antibiotic at fixed inhibitor concentration of 4 mg/L ([3]; Enterobacter aerogenes Zayakosky 5, with 501): 16 µg/mL
MIC of antibiotic at fixed inhibitor concentration of 4 mg/L ([3]; Enterobacter aerogenes Zayakosky 5, with BRL427158): 0.5 µg/mL
MIC of antibiotic at fixed inhibitor concentration of 4 mg/L ([3]; Enterobacter aerogenes Zayakosky 5, with clavulanic acid): 8 µg/mL
MIC of antibiotic at fixed inhibitor concentration of 4 mg/L ([3]; Enterobacter aerogenes Zayakosky 5, with sulbactam): 16 µg/mL
MIC of antibiotic at fixed inhibitor concentration of 4 mg/L ([3]; Enterobacter aerogenes Zayakosky 5, with tazobactam): 16 µg/mL
MIC of antibiotic ([4]; antibiotic alone, no inhibitor): 2 µg/mL
MIC of antibiotic at fixed inhibitor concentration of 4 mg/L ([4]; with 102 and clavulanate): 2 µg/mL
MIC of antibiotic at fixed inhibitor concentration of 4 mg/L ([4]; with 102 and sulbactam): 2 µg/mL
MIC of antibiotic at fixed inhibitor concentration of 4 mg/L ([4]; with 102 only): 2 µg/mL
MIC of antibiotic at fixed inhibitor concentration of 4 mg/L ([4]; with 324 and clavulanate): 2 µg/mL
MIC of antibiotic at fixed inhibitor concentration of 4 mg/L ([4]; with 324 and sulbactam): 2 µg/mL
MIC of antibiotic at fixed inhibitor concentration of 4 mg/L ([4]; with 324 only): 4 µg/mL
MIC of antibiotic at fixed inhibitor concentration of 4 mg/L ([4]; with 501): 2 µg/mL
MIC of antibiotic at fixed inhibitor concentration of 4 mg/L ([4]; with BRL427158): 2 µg/mL
MIC of antibiotic at fixed inhibitor concentration of 4 mg/L [4, 11]: 4 µg/mL
MIC of antibiotic at fixed inhibitor concentration of 4 mg/L ([4]; with sulbactam): 4 µg/mL
MIC of antibiotic at fixed inhibitor concentration of 4 mg/L ([4]; with tazobactam): 4 µg/mL
MIC of antibiotic ([6]; antibiotic alone, no inhibitor): 32 µg/mL
MIC of antibiotic at fixed inhibitor concentration of 4 mg/L ([6]; with 102 and clavulanate): 0.25 µg/mL
MIC of antibiotic at fixed inhibitor concentration of 4 mg/L ([6]; with 102 and sulbactam): 1 µg/mL
MIC of antibiotic at fixed inhibitor concentration of 4 mg/L ([6]; with 102 only): 16 µg/mL
MIC of antibiotic at fixed inhibitor concentration of 4 mg/L ([6]; with 324 and clavulanate): 0.25 µg/mL
MIC of antibiotic at fixed inhibitor concentration of 4 mg/L ([6]; with 324 and sulbactam): 1 µg/mL
MIC of antibiotic at fixed inhibitor concentration of 4 mg/L ([6]; with 324 only): 16 µg/mL
MIC of antibiotic at fixed inhibitor concentration of 4 mg/L ([6]; with 501): 1 µg/mL
MIC of antibiotic at fixed inhibitor concentration of 4 mg/L ([6]; with BRL427158): 0.125 µg/mL
MIC of antibiotic at fixed inhibitor concentration of 4 mg/L [6, 11]: 0.5 µg/mL
MIC of antibiotic at fixed inhibitor concentration of 4 mg/L ([6]; with sulbactam): 1 µg/mL
MIC of antibiotic at fixed inhibitor concentration of 4 mg/L ([6]; with tazobactam): 1 µg/mL
MIC of antibiotic ([7]; antibiotic alone, no inhibitor): <0.06 µg/mL
MIC of antibiotic at fixed inhibitor concentration of 4 mg/L ([7]; with 102 and clavulanate): 0.25 µg/mL
MIC of antibiotic at fixed inhibitor concentration of 4 mg/L ([7]; with 102 and sulbactam): 0.25 µg/mL
MIC of antibiotic at fixed inhibitor concentration of 4 mg/L ([7]; with 102 only): 0.25 µg/mL
MIC of antibiotic at fixed inhibitor concentration of 4 mg/L ([7]; with 324 and clavulanate): 0.25 µg/mL
MIC of antibiotic at fixed inhibitor concentration of 4 mg/L ([7]; with 324 and sulbactam): 0.25 µg/mL
MIC of antibiotic at fixed inhibitor concentration of 4 mg/L ([7]; with 324 only): 0.25 µg/mL
MIC of antibiotic at fixed inhibitor concentration of 4 mg/L ([7]; with 501): 0.125 µg/mL
MIC of antibiotic at fixed inhibitor concentration of 4 mg/L ([7]; with BRL427158): 0.125 µg/mL
MIC of antibiotic at fixed inhibitor concentration of 4 mg/L [7, 11]: ≦0.06 mg/L
MIC of antibiotic at fixed inhibitor concentration of 4 mg/L ([7]; with sulbactam): ≦0.06 mg/L
MIC of antibiotic at fixed inhibitor concentration of 4 mg/L ([7]; with tazobactam): ≦0.06 mg/L
MIC of antibiotic ([8]; antibiotic alone, no inhibitor): <0.06 µg/mL
MIC of antibiotic at fixed inhibitor concentration of 4 mg/L ([8]; with 102 and clavulanate): ≦0.06 mg/L
MIC of antibiotic at fixed inhibitor concentration of 4 mg/L ([8]; with 102 and sulbactam): <0.06 µg/mL
MIC of antibiotic at fixed inhibitor concentration of 4 mg/L ([8]; with 102 only): ≦0.06 mg/L
MIC of antibiotic at fixed inhibitor concentration of 4 mg/L ([8]; with 324 and clavulanate): <0.06 µg/mL
MIC of antibiotic at fixed inhibitor concentration of 4 mg/L ([8]; with 324 and sulbactam): <0.06 µg/mL
MIC of antibiotic at fixed inhibitor concentration of 4 mg/L ([8]; with 324 only): ≦0.06 mg/L
MIC of antibiotic at fixed inhibitor concentration of 4 mg/L ([8]; with 501): ≦0.06 mg/L
MIC of antibiotic at fixed inhibitor concentration of 4 mg/L ([8]; with BRL427158): ≦0.06 mg/L
MIC of antibiotic at fixed inhibitor concentration of 4 mg/L [8, 11]: ≦0.06 mg/L
MIC of antibiotic at fixed inhibitor concentration of 4 mg/L ([8]; with sulbactam): ≦0.06 mg/L
MIC of antibiotic at fixed inhibitor concentration of 4 mg/L ([8]; with tazobactam): ≦0.06 mg/L
MIC of antibiotic ([10]; antibiotic alone, no inhibitor): 16 µg/mL
MIC of antibiotic at fixed inhibitor concentration of 4 mg/L ([10]; with 102 and clavulanate): 2 µg/mL
MIC of antibiotic at fixed inhibitor concentration of 4 mg/L ([10]; with 102 and sulbactam): 2 µg/mL
MIC of antibiotic at fixed inhibitor concentration of 4 mg/L ([10]; with 102 only): 1 µg/mL
MIC of antibiotic at fixed inhibitor concentration of 4 mg/L ([10]; with 324 and clavulanate): 1 µg/mL
MIC of antibiotic at fixed inhibitor concentration of 4 mg/L ([10]; with 324 and sulbactam): 2 µg/mL
MIC of antibiotic at fixed inhibitor concentration of 4 mg/L ([10]; with 324 only): 2 µg/mL
MIC of antibiotic at fixed inhibitor concentration of 4 mg/L ([10]; with 501): 2 µg/mL
MIC of antibiotic at fixed inhibitor concentration of 4 mg/L ([10]; with BRL427158): 2 µg/mL
MIC of antibiotic at fixed inhibitor concentration of 4 mg/L [10, 11]: 8 µg/mL
MIC of antibiotic at fixed inhibitor concentration of 4 mg/L ([10]; with sulbactam): 8 µg/mL
MIC of antibiotic at fixed inhibitor concentration of 4 mg/L ([10]; with tazobactam): 16 µg/mL
SMILES: CC1(C)[C@H](NC(=O)/C(=N\OCc2cc(=O)c(O)cn2O)c2csc(N)n2)C(=O)N1OS(=O)(=O)O [Compound 26, (3S)-3-{(2Z)-2-(2-amino(1,3-thiazol-4-yl))-3-[(1,5-dihydroxy-4-oxo(2-hydropyridyl))methoxy]-3-azaprop-2-enoylamino}-4,4-dimethyl-2-oxoazetidinyl hydroxysulfonate]
